Marks after values point to notes of the source that are not given here.
Columns and labels:
[1] = system: convulsions induced by pentylenetetrazol; assay: Anticonvulsant potency against convulsions induced by pentylenetetrazol; format: in vivo; settings: for mean convulsions score compared with that of the reference sample: all doses studied: 100 mg/kg, 150 mg/kg, 250 mg/kg; for anticonvulsive potency compared with the reference substance: on the basis of mean convulsions scores, 100, 150, 250 mg/kg; for Protection against stage 3 convulsions (% protection) / Protection against stage 4 convulsions (% protection) / Protection against stage 5 convulsions (% protection) / convulsive manifestations (points) induced by pentylenetetrazol (X ± SE): n = 10; for convulsive manifestations (points) induced by pentylenetetrazol (X ± SE): five-point scale
Procedure: (§1) Convulsions were induced by the administration of pentylenetetrazol. The severity (stage) of the convulsions was rated on a five-point scale. The anticonvulsant potency was rated on the basis of the substance's ability to reduce the severity of convulsions induced by the pentylenetetrazol. Halodif substances were administered intragastrically over 2 hr prior to the pentylenetetrazol. The pentylenetetrazol was administered subcutaneously. Probit analysis was used for statistical processing of the results with Student's test, ANOVA and criterion x. The differences in the results were considered statistically reliable at a significance level of p<0.05.
In the second phase the anticonvulsant potency of the reference substance was study in doses of 50 mg/kg, 100 mg/kg, 150 mg/kg, 200 mg/kg and 500 mg/kg (Table 2). The reference substance was racemic halodif. […] The halodif reference substance was used in doses of 50 mg/kg, 100 mg/kg, 150 mg/kg, 200 mg/kg and 500 mg/kg. Two hours after the halodif substance was administered to the animals the pentylenetetrazol (110 mg/kg) was administered and stage 3 and stage 5 convulsions were rated.
Samples were compared on the basis of the mean score for convulsive manifestations induced by pentylenetetrazol after administration of the samples under study.
The anticonvulsive potency of the samples of the halodif substance under study were also compared with respect to the proportion of animals in which the substance under study prevented the development of convulsions of differing severity induced by pentylenetetrazol. Table 4 presents the results expressed as the percentage of animals in which no convulsions of the specified stage developed (% protection).

[2] = system: animals; assay: Establishing the convulsion-inducing dose of pentylenetetrazol; format: in vivo
Procedure: as §1
In the first phase of the study the optimum convulsion-inducing dose of pentylenetetrazol, CD97, which was 110 mg/kg (Table 1) was established.

[3] = sample dose 100 mg/kg 2 hours before pentylenetetrazol 110 mg/kg
[4] = sample dose 100 mg/kg 2 hours before pentylenetetrazol 110 mg/kg, listed as Sample 4/(+) isomer
[5] = sample dose 100 mg/kg intragastrically 2 hours before pentylenetetrazol 110 mg/kg
[6] = sample dose 150 mg/kg 2 hours before pentylenetetrazol 110 mg/kg
[7] = sample dose 150 mg/kg intragastrically 2 hours before pentylenetetrazol 110 mg/kg
[8] = sample dose 250 mg/kg 2 hours before pentylenetetrazol 110 mg/kg
[9] = sample dose 250 mg/kg 2 hours before pentylenetetrazol 110 mg/kg, listed as Sample 4/(+)isomer
[10] = sample dose 250 mg/kg intragastrically 2 hours before pentylenetetrazol 110 mg/kg
[11] = doses of 100 mg/kg and 150 mg/kg, stages 3 and 4
[12] = reference substance 50 mg/kg intragastrically 2 h before pentylenetetrazol 110 mg/kg
[13] = reference substance 100 mg/kg intragastrically 2 h before pentylenetetrazol 110 mg/kg
[14] = reference substance 150 mg/kg intragastrically 2 h before pentylenetetrazol 110 mg/kg
[15] = reference substance 200 mg/kg intragastrically 2 h before pentylenetetrazol 110 mg/kg
[16] = reference substance 500 mg/kg intragastrically 2 h before pentylenetetrazol 110 mg/kg
[17] = pentylenetetrazol dose 90, 5 animals in the group
[18] = pentylenetetrazol dose 100, 5 animals in the group
[19] = pentylenetetrazol dose 110, 5 animals in the group
[20] = sample dose 100 mg/kg 2 hours before pentylenetetrazol 110 mg/kg, listed as Sample 2/(−) isomer
[21] = sample dose 150 mg/kg 2 hours before pentylenetetrazol 110 mg/kg, listed as Sample 2/(−) isomer
[22] = sample dose 250 mg/kg 2 hours before pentylenetetrazol 110 mg/kg, listed as Sample 2/(−) isomer

NC(=O)N[C@H](c1ccccc1)c1cccc(Cl)c1 [Sample 3/(+) isomer, (+)-1-[(3-chlorophenyl)-phenyl-methyl]urea]
mean convulsions score compared with that of the reference sample [1]: lower convulsions score | protection against convulsions, comparison of the samples ([1]; all stages (3, 4 and 5)): greater protection | anticonvulsive potency compared with its optical antipode ([1]; in vivo): higher anticonvulsive potency | anticonvulsive potency compared with the reference substance [1]: more anticonvulsive potency | Protection against stage 3 convulsions (% protection) [1, 3]: 30% | Protection against stage 4 convulsions (% protection) [1, 3]: 60% | Protection against stage 5 convulsions (% protection) [1, 3]: 80% | Protection against stage 3 convulsions (% protection) [1, 4]: 20% | Protection against stage 4 convulsions (% protection) [1, 4]: 80% | Protection against stage 5 convulsions (% protection) [1, 4]: 100% | convulsive manifestations (points) induced by pentylenetetrazol (X ± SE) [1, 5]: 3.2 ± 0.42 points | convulsive manifestations (points) induced by pentylenetetrazol (X ± SE) ([1]; sample dose 100 mg/kg intragastrically 2 hours before pentylenetetrazol 110 mg/kg, listed as Sample 4/(+) isomer): 3.0 ± 0.21 points | Protection against stage 3 convulsions (% protection) [1, 6]: 40% | Protection against stage 4 convulsions (% protection) [1, 6]: 90% | Protection against stage 5 convulsions (% protection) [1, 6]: 100% | Protection against stage 3 convulsions (% protection) ([1]; sample dose 150 mg/kg 2 hours before pentylenetetrazol 110 mg/kg, listed as Sample 4/(+)isomer): 30% | convulsive manifestations (points) induced by pentylenetetrazol (X ± SE) [1, 7]: 2.5 ± 0.31 points | convulsive manifestations (points) induced by pentylenetetrazol (X ± SE) ([1]; sample dose 150 mg/kg intragastrically 2 hours before pentylenetetrazol 110 mg/kg, listed as Sample 4/(+) isomer): 2.6 ± 0.31 points | Protection against stage 3 convulsions (% protection) [1, 8]: 70% | Protection against stage 4 convulsions (% protection) [1, 8]: 100% | Protection against stage 5 convulsions (% protection) [1, 8]: 100% | Protection against stage 3 convulsions (% protection) [1, 9]: 50% | Protection against stage 4 convulsions (% protection) [1, 9]: 90% | convulsive manifestations (points) induced by pentylenetetrazol (X ± SE) [1, 10]: 1.9 ± 0.28 points | convulsive manifestations (points) induced by pentylenetetrazol (X ± SE) ([1]; sample dose 250 mg/kg intragastrically 2 hours before pentylenetetrazol 110 mg/kg, listed as Sample 4/(+) isomer): 2.5 ± 0.27 points

NC(=O)NC(c1ccccc1)c1cccc(Cl)c1 (racemic) [Reference sample, 1-[(3-chlorophenyl)-phenyl-methyl]urea, reference compound]
appearance of stage 5 convulsions ([1]; dose 200 mg/kg and higher, pentylenetetrazol 110 mg/kg): completely prevented | protection compared with samples 1 and 2 ((−)-isomer of halodif) [1, 11]: reliably higher protection | protection compared with samples 3 and 4 ((+)-isomer of halodif) [1, 11]: reliably lower protection | animals protected from tonic convulsions in all extremities (stage 5) ([1]; lowest dose (50 mg/kg), pentylenetetrazol 110 mg/kg): 20% | Proportion of animals with stage 3 convulsions (%, n = 5) [1, 12]: 100% | Proportion of animals with stage 5 convulsions (%, n = 5) [1, 12]: 80% | Proportion of animals with stage 3 convulsions (%, n = 5) [1, 13]: 100% | Proportion of animals with stage 5 convulsions (%, n = 5) [1, 13]: 20% | Proportion of animals with stage 3 convulsions (%, n = 5) [1, 14]: 70% | Proportion of animals with stage 5 convulsions (%, n = 5) [1, 14]: 10% | Proportion of animals with stage 3 convulsions (%, n = 5) [1, 15]: 60% | Proportion of animals with stage 5 convulsions (%, n = 5) [1, 15]: 0% | Proportion of animals with stage 3 convulsions (%, n = 5) [1, 16]: 60% | Proportion of animals with stage 5 convulsions (%, n = 5) [1, 16]: 0% | Protection against stage 3 convulsions (% protection) [1, 3]: 20% | Protection against stage 4 convulsions (% protection) [1, 3]: 50% | Protection against stage 5 convulsions (% protection) [1, 3]: 80% | convulsive manifestations (points) induced by pentylenetetrazol (X ± SE) [1, 5]: 3.5 ± 0.31 points | Protection against stage 3 convulsions (% protection) [1, 6]: 30% | Protection against stage 4 convulsions (% protection) [1, 6]: 70% | Protection against stage 5 convulsions (% protection) [1, 6]: 90% | convulsive manifestations (points) induced by pentylenetetrazol (X ± SE) [1, 7]: 2.9 ± 0.28 points | Protection against stage 3 convulsions (% protection) [1, 8]: 50% | Protection against stage 4 convulsions (% protection) [1, 8]: 80% | Protection against stage 5 convulsions (% protection) [1, 8]: 100% | convulsive manifestations (points) induced by pentylenetetrazol (X ± SE) [1, 10]: 2.6 ± 0.33 points | animals in which development of clonic convulsions (stage 3 convulsions) was prevented ([1]; starting at a dose of 150 mg/kg, pentylenetetrazol 110 mg/kg): 30-40%

C1CCc2nnnn2CC1 [Pentylenetetrazol, pentylenetetrazol]
Number of animals with stage 3 convulsions ([2]; pentylenetetrazol dose 80 (no unit in table; mg/kg), 5 animals in the group): 0 | Proportion of animals with stage 3 (%) ([2]; pentylenetetrazol dose 80, 5 animals in the group): 0% | Number of animals with stage 3 convulsions [2, 17]: 3 | Proportion of animals with stage 3 (%) [2, 17]: 60% | Number of animals with stage 3 convulsions [2, 18]: 4 | Proportion of animals with stage 3 (%) [2, 18]: 80% | Number of animals with stage 3 convulsions [2, 19]: 4 | Proportion of animals with stage 3 (%) [2, 19]: 80% | optimum convulsion-inducing dose of pentylenetetrazol, CD97 ([2]; subcutaneous): 110 mg/kg

NC(=O)NC(c1ccccc1)c1cccc(Cl)c1 (single isomer, unassigned; (-)) [Sample 1/(−) isomer, (−)-1-[(3-chlorophenyl)-phenyl-methyl]urea]
mean convulsions score compared with that of the reference sample [1]: higher | anticonvulsive potency compared with the reference substance [1]: less anticonvulsive potency | Protection against stage 3 convulsions (% protection) [1, 3]: 10% | Protection against stage 4 convulsions (% protection) [1, 3]: 40% | Protection against stage 5 convulsions (% protection) [1, 3]: 60* % | Protection against stage 4 convulsions (% protection) [1, 20]: 20* % | Protection against stage 5 convulsions (% protection) [1, 20]: 70% | convulsive manifestations (points) induced by pentylenetetrazol (X ± SE) [1, 5]: 3.8 ± 0.39 points | convulsive manifestations (points) induced by pentylenetetrazol (X ± SE) ([1]; sample dose 100 mg/kg intragastrically 2 hours before pentylenetetrazol 110 mg/kg, listed as Sample 2/(−) isomer): 4.1 ± 0.23 points | convulsive manifestations (points) induced by pentylenetetrazol (X ± SE) ([1]; sample dose 100 mg/kg intragastrically 2 hours before pentylenetetrazol 110 mg/kg, listed as sample 1): 3.8±0.39 points | Protection against stage 3 convulsions (% protection) [1, 6]: 20% | Protection against stage 4 convulsions (% protection) [1, 6]: 70% | Protection against stage 5 convulsions (% protection) [1, 6]: 80% | Protection against stage 3 convulsions (% protection) [1, 21]: 10% | Protection against stage 4 convulsions (% protection) [1, 21]: 40* % | Protection against stage 5 convulsions (% protection) [1, 21]: 70% | convulsive manifestations (points) induced by pentylenetetrazol (X ± SE) [1, 7]: 2.9 ± 0.29 points | convulsive manifestations (points) induced by pentylenetetrazol (X ± SE) ([1]; sample dose 150 mg/kg intragastrically 2 hours before pentylenetetrazol 110 mg/kg, listed as Sample 2/(−) isomer): 3.5 ± 0.22 points | Protection against stage 3 convulsions (% protection) [1, 8]: 40% | Protection against stage 4 convulsions (% protection) [1, 8]: 80% | Protection against stage 5 convulsions (% protection) [1, 8]: 100% | Protection against stage 3 convulsions (% protection) [1, 22]: 30% | Protection against stage 4 convulsions (% protection) [1, 22]: 70% | convulsive manifestations (points) induced by pentylenetetrazol (X ± SE) [1, 10]: 2.8 ± 0.41 points | convulsive manifestations (points) induced by pentylenetetrazol (X ± SE) ([1]; sample dose 250 mg/kg intragastrically 2 hours before pentylenetetrazol 110 mg/kg, listed as Sample 2/(−) isomer): 3.0 ± 0.37 points | convulsive manifestations (points) induced by pentylenetetrazol (X ± SE) ([1]; sample dose 250 mg/kg intragastrically 2 hours before pentylenetetrazol 110 mg/kg, listed as sample 1): 2.8±0.41 points

From US20160244404A1, “OPTICAL ISOMERS OF (+) AND (-)-BENZHYDRYL UREAS AND (+) AND (-)-1-[(3-CHLOROPHENYL)-PHENYL-METHYL] UREA, A PHARMACEUTICAL COMPOSITION BASED THEREON AND A METHOD FOR PRODUCING SAID OPTICAL ISOMERS” (priority 2013, published 2016)
